In PubChem BioAssay (NCI):
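Results reflect a 48-hour exposure of cells in 96-well plates to compound at five concentrations. The concentration for 50% growth inhibition is given as GI50. TGI denotes the concentration required for complete inhibition of growth.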

Experiments:
Assay in all cases: NCI anticancer screen, dose series, 48 h
SK-MEL-28 melanoma = tested on: SK-MEL-28 melanoma
CAKI-1 renal = tested on: CAKI-1 renal
RPMI-8226 leukemia = tested on: RPMI-8226 leukemia
SN12C renal = tested on: SN12C renal
NCI-H522 lung = tested on: NCI-H522 lung
NCI/ADR-RES ovarian = tested on: NCI/ADR-RES ovarian
SK-OV-3 ovarian = tested on: SK-OV-3 ovarian
UO-31 renal = tested on: UO-31 renal
DU-145 prostate = tested on: DU-145 prostate
SR leukemia = tested on: SR leukemia
LOX IMVI melanoma = tested on: LOX IMVI melanoma
SF-295 CNS = tested on: SF-295 CNS
786-0 renal = tested on: 786-0 renal
CCRF-CEM leukemia = tested on: CCRF-CEM leukemia
SK-MEL-2 melanoma = tested on: SK-MEL-2 melanoma
SF-539 CNS = tested on: SF-539 CNS
NCI-H226 lung = tested on: NCI-H226 lung
KM12 colon = tested on: KM12 colon
HCT-116 colon = tested on: HCT-116 colon
K-562 leukemia = tested on: K-562 leukemia
UACC-62 melanoma = tested on: UACC-62 melanoma
HT29 colon = tested on: HT29 colon
SNB-19 CNS = tested on: SNB-19 CNS
MDA-MB-231 breast = tested on: MDA-MB-231 breast
NCI-H460 lung = tested on: NCI-H460 lung
IGROV1 ovarian = tested on: IGROV1 ovarian
HL-60(TB) leukemia = tested on: HL-60(TB) leukemia
MALME-3M melanoma = tested on: MALME-3M melanoma
MOLT-4 leukemia = tested on: MOLT-4 leukemia
OVCAR-3 ovarian = tested on: OVCAR-3 ovarian
HS 578T breast = tested on: HS 578T breast
NCI-H23 lung = tested on: NCI-H23 lung
OVCAR-5 ovarian = tested on: OVCAR-5 ovarian
TK-10 renal = tested on: TK-10 renal
OVCAR-8 ovarian = tested on: OVCAR-8 ovarian
SNB-75 CNS = tested on: SNB-75 CNS
A498 renal = tested on: A498 renal
ACHN renal = tested on: ACHN renal
HCC-2998 colon = tested on: HCC-2998 colon
A549 NSCLC = tested on: A549 NSCLC
MCF7 breast = tested on: MCF7 breast
COLO 205 colon = tested on: COLO 205 colon
RXF 393 renal = tested on: RXF 393 renal
U251 CNS = tested on: U251 CNS
SW-620 colon = tested on: SW-620 colon
M14 melanoma = tested on: M14 melanoma
UACC-257 melanoma = tested on: UACC-257 melanoma
HCT-15 colon = tested on: HCT-15 colon
HOP-62 NSCLC = tested on: HOP-62 NSCLC
SF-268 CNS = tested on: SF-268 CNS
OVCAR-4 ovarian = tested on: OVCAR-4 ovarian
SK-MEL-5 melanoma = tested on: SK-MEL-5 melanoma
EKVX NSCLC = tested on: EKVX NSCLC
MDA-MB-435 = tested on: MDA-MB-435
PC-3 prostate = tested on: PC-3 prostate

Structure (SMILES): COc1ccc2cc(C#Cc3ccc(-n4c(/C=C/c5cc(OC)c(OC)c(OC)c5)nc5ccccc5c4=O)c(C)c3)ccc2c1
- GI50 (SK-MEL-28 melanoma): > 100 µM
- TGI (SK-MEL-28 melanoma): > 100 µM
- GI50 (CAKI-1 renal): 4.91 µM
- TGI (CAKI-1 renal): > 100 µM
- GI50 (RPMI-8226 leukemia): 0.821 µM
- TGI (RPMI-8226 leukemia): > 100 µM
- GI50 (SN12C renal): > 100 µM
- TGI (SN12C renal): > 100 µM
- GI50 (NCI-H522 lung): > 100 µM
- TGI (NCI-H522 lung): > 100 µM
- GI50 (NCI/ADR-RES ovarian): > 100 µM
- TGI (NCI/ADR-RES ovarian): > 100 µM
- GI50 (SK-OV-3 ovarian): > 100 µM
- TGI (SK-OV-3 ovarian): > 100 µM
- GI50 (UO-31 renal): > 100 µM
- TGI (UO-31 renal): > 100 µM
- GI50 (DU-145 prostate): > 100 µM
- TGI (DU-145 prostate): > 100 µM
- GI50 (SR leukemia): 0.395 µM
- TGI (SR leukemia): > 100 µM
- GI50 (LOX IMVI melanoma): 5.94 µM
- TGI (LOX IMVI melanoma): > 100 µM
- GI50 (SF-295 CNS): > 100 µM
- TGI (SF-295 CNS): > 100 µM
- GI50 (786-0 renal): > 100 µM
- TGI (786-0 renal): > 100 µM
- GI50 (CCRF-CEM leukemia): > 100 µM
- TGI (CCRF-CEM leukemia): > 100 µM
- GI50 (SK-MEL-2 melanoma): > 100 µM
- TGI (SK-MEL-2 melanoma): > 100 µM
- GI50 (SF-539 CNS): > 100 µM
- TGI (SF-539 CNS): > 100 µM
- GI50 (NCI-H226 lung): > 100 µM
- TGI (NCI-H226 lung): > 100 µM
- GI50 (KM12 colon): 4.3 µM
- TGI (KM12 colon): > 100 µM
- GI50 (HCT-116 colon): 3.53 µM
- TGI (HCT-116 colon): > 100 µM
- GI50 (K-562 leukemia): 0.882 µM
- TGI (K-562 leukemia): > 100 µM
- GI50 (UACC-62 melanoma): 2.19 µM
- TGI (UACC-62 melanoma): > 100 µM
- GI50 (HT29 colon): 3.41 µM
- TGI (HT29 colon): > 100 µM
- GI50 (SNB-19 CNS): > 100 µM
- TGI (SNB-19 CNS): > 100 µM
- GI50 (MDA-MB-231 breast): 37 µM
- TGI (MDA-MB-231 breast): > 100 µM
- GI50 (NCI-H460 lung): 2.48 µM
- TGI (NCI-H460 lung): > 100 µM
- GI50 (IGROV1 ovarian): > 100 µM
- TGI (IGROV1 ovarian): > 100 µM
- GI50 (HL-60(TB) leukemia): 0.686 µM
- TGI (HL-60(TB) leukemia): > 100 µM
- GI50 (MALME-3M melanoma): 42.6 µM
- TGI (MALME-3M melanoma): > 100 µM
- GI50 (MOLT-4 leukemia): 4.66 µM
- TGI (MOLT-4 leukemia): > 100 µM
- GI50 (OVCAR-3 ovarian): 19.3 µM
- TGI (OVCAR-3 ovarian): > 100 µM
- GI50 (HS 578T breast): > 100 µM
- TGI (HS 578T breast): > 100 µM
- GI50 (NCI-H23 lung): 40.5 µM
- TGI (NCI-H23 lung): > 100 µM
- GI50 (OVCAR-5 ovarian): > 100 µM
- TGI (OVCAR-5 ovarian): > 100 µM
- GI50 (TK-10 renal): > 100 µM
- TGI (TK-10 renal): > 100 µM
- GI50 (OVCAR-8 ovarian): > 100 µM
- TGI (OVCAR-8 ovarian): > 100 µM
- GI50 (SNB-75 CNS): > 100 µM
- TGI (SNB-75 CNS): > 100 µM
- GI50 (A498 renal): > 100 µM
- TGI (A498 renal): > 100 µM
- GI50 (ACHN renal): > 100 µM
- TGI (ACHN renal): > 100 µM
- GI50 (HCC-2998 colon): > 100 µM
- TGI (HCC-2998 colon): > 100 µM
- GI50 (A549 NSCLC): > 100 µM
- TGI (A549 NSCLC): > 100 µM
- GI50 (MCF7 breast): 63.8 µM
- TGI (MCF7 breast): > 100 µM
- GI50 (COLO 205 colon): 6.96 µM
- TGI (COLO 205 colon): > 100 µM
- GI50 (RXF 393 renal): > 100 µM
- TGI (RXF 393 renal): > 100 µM
- GI50 (U251 CNS): 7.4 µM
- TGI (U251 CNS): > 100 µM
- GI50 (SW-620 colon): 17.2 µM
- TGI (SW-620 colon): > 100 µM
- GI50 (M14 melanoma): 12.7 µM
- TGI (M14 melanoma): > 100 µM
- GI50 (UACC-257 melanoma): 6.24 µM
- TGI (UACC-257 melanoma): > 100 µM
- GI50 (HCT-15 colon): 1.22 µM
- TGI (HCT-15 colon): > 100 µM
- GI50 (HOP-62 NSCLC): > 100 µM
- TGI (HOP-62 NSCLC): > 100 µM
- GI50 (SF-268 CNS): > 100 µM
- TGI (SF-268 CNS): > 100 µM
- GI50 (OVCAR-4 ovarian): > 100 µM
- TGI (OVCAR-4 ovarian): > 100 µM
- GI50 (SK-MEL-5 melanoma): 1.85 µM
- TGI (SK-MEL-5 melanoma): > 100 µM
- GI50 (EKVX NSCLC): 24.1 µM
- TGI (EKVX NSCLC): > 100 µM
- GI50 (MDA-MB-435): > 100 µM
- TGI (MDA-MB-435): > 100 µM

Structure (SMILES): Cc1ncc([N+](=O)[O-])n1CCn1ccnc1[N+](=O)[O-]
- TGI (SK-MEL-28 melanoma): > 100 µM
- TGI (RPMI-8226 leukemia): > 100 µM
- TGI (SN12C renal): > 100 µM
- TGI (NCI-H522 lung): > 100 µM
- TGI (SR leukemia): > 100 µM
- TGI (SF-295 CNS): > 100 µM
- TGI (786-0 renal): > 100 µM
- TGI (CCRF-CEM leukemia): > 100 µM
- TGI (SK-MEL-2 melanoma): > 100 µM
- TGI (SF-539 CNS): > 100 µM
- TGI (NCI-H226 lung): > 100 µM
- TGI (KM12 colon): > 100 µM
- TGI (HCT-116 colon): > 100 µM
- TGI (PC-3 prostate): > 100 µM
- TGI (K-562 leukemia): > 100 µM
- TGI (HT29 colon): > 100 µM
- TGI (NCI-H460 lung): > 100 µM
- TGI (HL-60(TB) leukemia): > 100 µM
- TGI (MALME-3M melanoma): > 100 µM
- TGI (MOLT-4 leukemia): > 100 µM
- TGI (OVCAR-3 ovarian): > 100 µM
- TGI (HS 578T breast): > 100 µM
- TGI (NCI-H23 lung): > 100 µM
- TGI (OVCAR-5 ovarian): > 100 µM
- TGI (TK-10 renal): 29 µM
- TGI (OVCAR-8 ovarian): > 100 µM
- TGI (SNB-75 CNS): > 100 µM
- TGI (A498 renal): > 100 µM
- TGI (ACHN renal): > 100 µM
- TGI (HCC-2998 colon): > 100 µM
- TGI (A549 NSCLC): > 100 µM
- TGI (MCF7 breast): > 100 µM
- TGI (U251 CNS): > 100 µM
- TGI (SW-620 colon): > 100 µM
- TGI (UACC-257 melanoma): > 100 µM
- TGI (HCT-15 colon): > 100 µM
- TGI (HOP-62 NSCLC): > 100 µM
- TGI (SF-268 CNS): > 100 µM
- TGI (SK-MEL-5 melanoma): > 100 µM
- TGI (EKVX NSCLC): > 100 µM
